One series has as its system SK-MEL-2. Kind of series: Cytotoxicity against human SK-MEL-2 cells by SRB assay. The format is functional, cell-based. (In general: In SRB staining, fixed cells bind dye roughly in proportion to their protein.)
Series [1] deals with BV-2. Kind of series: Antiinflammatory activity in mouse BV2 cells assessed as inhibition of LPS-induced NO production treated 30 mins before LPS stimulation measured after 24 hrs by Griess reaction. The format is functional, cell-based. On the technique in general: The Griess reaction detects nitrite, a stable product of nitric oxide.
Another series deals with HCT-15. The series is described as follows: Cytotoxicity against human HCT15 cells by SRB assay. The format is functional, cell-based.
The test system of another series is A549. The series is described as follows: Cytotoxicity against human A549 cells by SRB assay. The format is functional, cell-based.
The test system of another series is SK-OV-3. Kind of series: Cytotoxicity against human SKOV3 cells by SRB assay. Type of series: functional, cell-based.
Series [2] is described as follows: Cytotoxicity against mouse BV2 cells assessed as cell viability at 20 uM by MTT assay. As to conditions: read-out: Activity. The format is cell-based, BV-2.
Series [3] addresses T1, Nitric oxide synthase, inducible (Mus musculus) (UniProt P29477).
T1 sequence (whole entry): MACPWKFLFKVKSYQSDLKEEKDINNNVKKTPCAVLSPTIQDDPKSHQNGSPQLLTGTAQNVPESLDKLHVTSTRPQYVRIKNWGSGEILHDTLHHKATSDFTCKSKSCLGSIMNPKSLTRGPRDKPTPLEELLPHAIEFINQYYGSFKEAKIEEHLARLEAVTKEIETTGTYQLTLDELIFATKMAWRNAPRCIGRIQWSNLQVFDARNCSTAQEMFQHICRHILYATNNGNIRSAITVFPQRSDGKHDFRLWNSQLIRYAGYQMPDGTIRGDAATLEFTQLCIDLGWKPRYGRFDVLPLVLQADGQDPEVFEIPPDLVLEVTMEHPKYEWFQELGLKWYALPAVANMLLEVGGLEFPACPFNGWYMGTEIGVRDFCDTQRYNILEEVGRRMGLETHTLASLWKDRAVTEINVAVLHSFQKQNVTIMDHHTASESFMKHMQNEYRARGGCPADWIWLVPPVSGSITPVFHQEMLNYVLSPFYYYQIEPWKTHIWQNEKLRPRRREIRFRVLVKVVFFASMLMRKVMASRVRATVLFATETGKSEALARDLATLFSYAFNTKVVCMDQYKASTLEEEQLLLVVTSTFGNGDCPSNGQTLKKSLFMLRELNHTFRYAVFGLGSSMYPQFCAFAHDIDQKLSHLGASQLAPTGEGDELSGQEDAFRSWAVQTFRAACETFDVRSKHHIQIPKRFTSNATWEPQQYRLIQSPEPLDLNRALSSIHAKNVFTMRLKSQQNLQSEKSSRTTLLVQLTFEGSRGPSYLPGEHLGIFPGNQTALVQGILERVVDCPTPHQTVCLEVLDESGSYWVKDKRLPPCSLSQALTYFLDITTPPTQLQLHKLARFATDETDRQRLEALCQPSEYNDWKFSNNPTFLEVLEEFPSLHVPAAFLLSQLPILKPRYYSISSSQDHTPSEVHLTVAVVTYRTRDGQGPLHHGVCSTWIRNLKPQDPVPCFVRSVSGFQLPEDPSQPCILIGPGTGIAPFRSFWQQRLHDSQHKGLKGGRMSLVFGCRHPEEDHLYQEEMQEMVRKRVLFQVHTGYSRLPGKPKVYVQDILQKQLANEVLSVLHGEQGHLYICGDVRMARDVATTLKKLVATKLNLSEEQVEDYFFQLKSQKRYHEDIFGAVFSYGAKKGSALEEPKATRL
Kind of series: Inhibition of iNOS activity in mouse BV2 cells assessed as inhibition of LPS-induced NO production at 20 uM treated 12 hrs before LPS challenge measured after 12 hrs by Griess reaction. The format is cell-based. Conditions: BV-2.

In series [4] the test system is BV-2. Kind of series: Antiinflammatory activity in mouse BV2 cells assessed as inhibition of LPS-induced iNOS protein expression at 10 to 20 uM treated 30 mins before LPS stimulation measured after 6 hrs by Western blot analysis. Type of series: functional, cell-based. For orientation: Immunoblotting shows a protein as a band on a membrane.
Series [5] has as its system BV-2. Kind of series: Antiinflammatory activity in mouse BV2 cells assessed as inhibition of sodium nitroprusside-induced nitrite accumulation at 10 to 20 uM after 180 mins by Griess reaction. The format is functional, cell-based.

Calls of active or inactive are those of the source. No cut-off for these calls is given here.

In general, IC50 refers to the concentration needed to halve the response being measured.

`O=C(CCO)c1ccc(O)cc1`: the IC50 in the series with SK-MEL-2 is > 30 µM; in the series on BV-2 [1] it was 58.1 µM; with HCT-15, > 30 µM; with A549 it was > 30 µM; in the series with SK-OV-3, > 30 µM. For the same molecule, the viability at 20 µM in series [2] amounted to 107%.
Turning to `COc1cc(CCCO)ccc1O[C@H](C)[C@H](O)c1cc(OC)c(OC)c(OC)c1`, the half-maximal inhibitory concentration (IC50) in the series on SK-MEL-2 was 14.2 µM; with BV-2 [1], 17.9 µM; with HCT-15, 24.3 µM; in the series with A549, 4.17 µM; with SK-OV-3, 26.2 µM. In addition, the inhibition result in series [3] was “Active”. Besides, the viability at 20 µM in [2] amounted to 88.8%.
In the case of `COc1cc(/C=C\CO)ccc1O`, the half-maximal inhibitory concentration (IC50) with SK-MEL-2 amounted to 14.7 µM; with BV-2 [1], 14.1 µM; with HCT-15 it was 20.4 µM; in the series on A549 it was 11 µM; with SK-OV-3 it was 13 µM. For the same molecule, the inhibition entry (with BV-2 [4]; in series [3]) was “Active” throughout. The viability at 20 µM in [2] was 98.4%.
As for `COc1cc(CCCO)cc(OC)c1OC`, the IC50 with SK-MEL-2 is > 30 µM; in the series with BV-2 [1], 142 µM; in the series with HCT-15, > 30 µM; in the series with A549, > 30 µM; in the series on SK-OV-3 it was > 30 µM. Also, the viability at 20 µM in [2] worked out at 96.3%.
`COc1ccc(CCCO)cc1OC`: the IC50 in the series on SK-MEL-2 was 21.9 µM; with BV-2 [1] it was > 500 µM; in the series on HCT-15, 26.6 µM; with A549 it was 23.1 µM; with SK-OV-3, 11.8 µM. Moreover, the viability at 20 µM in series [2] was found to be 103%.
For `COc1cc(/C=C\C(=O)NCCc2ccc(O)cc2)ccc1O`, the half-maximal inhibitory concentration (IC50) is > 30 µM in the series with SK-MEL-2; 32.1 µM in the series on BV-2 [1]; > 30 µM in the series on HCT-15; > 30 µM in the series with A549; > 30 µM in the series with SK-OV-3. Besides, the viability at 20 µM in series [2] stood at 100%.
Turning to `COc1cc(/C=C/C(=O)NC[C@@H](O)c2ccc(O)cc2)ccc1O`, the IC50 with SK-MEL-2 is > 30 µM; with BV-2 [1], 54.8 µM; in the series with HCT-15 it was > 30 µM; in the series with A549, > 30 µM; with SK-OV-3, > 30 µM. Further, the viability at 20 µM in [2] stood at 98.3%.
For `COc1cc([C@H](O)[C@@H](CO)Oc2c(OC)cc(CCCO)cc2OC)ccc1O` (relative stereo), the IC50 was 29.1 µM in the series on SK-MEL-2; 37.2 µM in the series with BV-2 [1]; > 30 µM with HCT-15; > 30 µM with A549; > 30 µM in the series on SK-OV-3. Also, the viability at 20 µM in series [2] is 106%.
Consider `COc1cc(OC)c([C@H]2[C@@H](C)[C@@H](c3cc(OC)c(OC)cc3OC)O[C@@H]2C)cc1OC` (relative stereo), for which the half-maximal inhibitory concentration (IC50) with SK-MEL-2 was 11.3 µM; in the series with BV-2 [1], 59.9 µM; in the series with HCT-15 it was > 30 µM; in the series with A549, > 30 µM; in the series with SK-OV-3, 26.4 µM. In addition, the viability at 20 µM in series [2] came to 101%.
Turning to `COc1cc(OC)c([C@@H]2[C@H](C)[C@@H](C)[C@H]2c2cc(OC)c(OC)cc2OC)cc1OC` (relative stereo) [MAGNOSALIN], the half-maximal inhibitory concentration (IC50) came to 8.7 µM in the series on SK-MEL-2; 18.7 µM with BV-2 [1]; 23.1 µM with HCT-15; 19.6 µM in the series on A549; 27.4 µM in the series on SK-OV-3. Further, the inhibition entry with BV-2 [4] and in the series on BV-2 [5] was “Active” throughout. Also, the viability at 20 µM in series [2] amounted to 93.1%.
With `COc1cc(OC)c(OC)cc1/C=C\CO` [ACORAMOL], the concentration for half-maximal inhibition (IC50) in the series on SK-MEL-2 is 25.2 µM; in the series on BV-2 [1], 126 µM; in the series on HCT-15 it was > 30 µM; in the series on A549, > 30 µM; with SK-OV-3, > 30 µM. Moreover, the viability at 20 µM in [2] is 105%.
With `COc1cccc2c1C(=O)c1c(O)c3c(c(O)c1C2=O)C[C@@](O)(C(=O)CO)C[C@@H]3O[C@H]1C[C@H](N)[C@H](O)[C@H](C)O1` [DOXORUBICIN], the half-inhibitory concentration (IC50) in the series on SK-MEL-2 was 0.004 µM; with HCT-15 it was 0.082 µM; in the series with SK-OV-3, 0.004 µM.
Regarding `COc1cc(/C=C/C(=O)NCCc2ccc(O)cc2)ccc1O` [N-TRANS-FERULOYL TYRAMINE], the IC50 was > 30 µM in the series on SK-MEL-2; 17.4 µM with BV-2 [1]; > 30 µM with HCT-15; > 30 µM in the series on A549; > 30 µM with SK-OV-3. Also, the inhibition result (in the series on BV-2 [4]; in series [3]; in the series with BV-2 [5]) was “Active” throughout. The viability at 20 µM in [2] stood at 97.8%.
Take `COc1cc(CCCO)ccc1O[C@H](C)[C@@H](O)c1cc(OC)c(OC)c(OC)c1` [SURINAMENSINOL B]: the IC50 was determined as 10.4 µM in the series with SK-MEL-2; 8.17 µM with BV-2 [1]; 18.8 µM in the series with HCT-15; 5.41 µM with A549; 21.4 µM in the series on SK-OV-3. The inhibition entry in the series with BV-2 [5] was “Active”. The viability at 20 µM in series [2] stood at 76.2%.
On to `CNC(=N)NCCC[C@H](N)C(=O)O` [TILARGININE], for which the IC50 in the series on BV-2 [1] is 18.2 µM. Also, the viability at 20 µM in series [2] amounted to 98.8%.
